Consider 1 substance from patent US20190211099A1, “METHODS AND COMPOSITIONS FOR TREATING CANCER WITH SIGLEC-9 ACTIVITY MODULATORS” (KING'S COLLEGE LONDON, priority 2016, published 2019).

The target in assay [1] is T1, Siglec-9 (Homo sapiens, UniProt Q9Y336). The assay is described as follows: Binding of biotinylated MUC1 glycoforms to plate-bound recombinant Siglec fusion proteins. The note with it: 2 μg/ml biotinylated MUC1 glycoform, 4 hours; compared with Siglecs 3, 7 and 10. The protocol: Binding was enhanced when cells were pre-treated with 0.04 U/ml neuraminidase for 30 minutes at 37° C. in PBS (FIG. 3C), which removes competing cis-binding sialic acid sites from the surface of the cells. As this pattern is characteristic of binding to Siglecs (Macauley et al. (2014) NAT. REV. IMMUNOL. 14: 653-666), MUC1-ST binding to Siglecs was tested as follows: mouse anti human IgG was bound to plastic O/N and the plate was blocked using 1% BSA in PBS. Recombinant human Siglec (3, 5, 7, 8, 9 and 10) fusion proteins were added at 2 μg/mL for 2 hours. After incubation with 2 μg/ml biotinylated MUC1 glycoforms for 4 hours, O.D. was measured after the addition of streptavidin-HRP and substrate. […] Although Siglecs 3, 7 and 9 are expressed by monocytes and macrophages (FIG. 3D), a blocking antibody to Siglec-9 inhibited 80-95% of the MUC1-ST binding to these cells (FIGS. 2G-2I, 3E, and 5) indicating this is the dominant binding Siglec. […] Importantly, Siglec-9 bound to the breast cancer cell line T47D that expresses MUC1 carrying sialylated Core-1 glycans (FIG. 2J). Finally, isolated monocytes were bound to 10 μg/mL biotinylated MUC1-ST or 10 μg/mL biotinylated polyacrylamide carrying the ST glycan (PAA-ST; Glycotech).
Target sequence in this assay (Q9Y336 with tags, fused parts or gaps limits assumed): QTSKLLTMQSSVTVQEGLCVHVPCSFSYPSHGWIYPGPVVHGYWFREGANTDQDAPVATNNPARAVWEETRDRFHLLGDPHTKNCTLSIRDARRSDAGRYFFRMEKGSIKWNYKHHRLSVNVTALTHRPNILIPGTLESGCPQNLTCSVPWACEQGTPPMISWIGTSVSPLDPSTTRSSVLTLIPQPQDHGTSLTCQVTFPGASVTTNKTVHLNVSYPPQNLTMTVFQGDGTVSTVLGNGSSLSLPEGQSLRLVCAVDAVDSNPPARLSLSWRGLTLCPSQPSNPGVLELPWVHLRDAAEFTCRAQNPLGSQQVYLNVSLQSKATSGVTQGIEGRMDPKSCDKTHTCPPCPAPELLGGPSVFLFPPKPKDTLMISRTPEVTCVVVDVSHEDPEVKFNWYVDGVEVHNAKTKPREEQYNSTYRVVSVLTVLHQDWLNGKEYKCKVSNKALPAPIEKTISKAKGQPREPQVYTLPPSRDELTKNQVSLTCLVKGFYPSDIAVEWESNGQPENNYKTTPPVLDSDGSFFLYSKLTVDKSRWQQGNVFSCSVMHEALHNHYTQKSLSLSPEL

The target of assay [2] is T1, Siglec-9. The assay is described as follows: Phosphorylation of Siglec-9 (ELISA, phospho immunoreceptor array). To be noted: monocytes and macrophages; antibody cross-linked. The format is cell-based. The protocol:
To determine the intracellular effects of MUC1-ST binding to Siglec-9, the ability of MUC1-ST to induce phosphorylation of the immunoreceptor tyrosine-based inhibitory motif (ITIM) of Siglec-9 thereby inducing intracellular inhibitory signals (Avril et al. (2004) J. IMMUNOL. 173: 6841-6849) was assessed. Without wishing to be bound by theory, it was hypothesized that this was likely occur as the repeated glycans found on MUC1 could be able to crosslink this lectin. To investigate the effects of MUC1-ST on Siglec-9 phosphorylation, monocytes or differentiated M-CSF macrophages were treated with MUC1-ST or cross-linked anti-Siglec-9 antibody at 4° C. for 4 hours or 30 minutes, respectively, and were then brought to 37° C. for 15 minutes, and lysed in the presence of pervanadate. Lysates were assessed for the phosphorylation of Siglec-9 using an ELISA or a 59 phospho immunoreceptor array (Bio-Techne) according to the manufacturer's instructions. For the ELISA, anti-human Siglec-9 was plated overnight (O/N) on plastic before being blocked with 1% BSA in PBS. Clarified supernatant was added and incubated for 2 hours. After incubation with 1 μg/mL biotinylated anti phospho-tyrosine, O.D. at 450 nm was measured after the addition of streptavidin-HRP and substrate.
Target sequence in this assay (Q9Y336 18-463): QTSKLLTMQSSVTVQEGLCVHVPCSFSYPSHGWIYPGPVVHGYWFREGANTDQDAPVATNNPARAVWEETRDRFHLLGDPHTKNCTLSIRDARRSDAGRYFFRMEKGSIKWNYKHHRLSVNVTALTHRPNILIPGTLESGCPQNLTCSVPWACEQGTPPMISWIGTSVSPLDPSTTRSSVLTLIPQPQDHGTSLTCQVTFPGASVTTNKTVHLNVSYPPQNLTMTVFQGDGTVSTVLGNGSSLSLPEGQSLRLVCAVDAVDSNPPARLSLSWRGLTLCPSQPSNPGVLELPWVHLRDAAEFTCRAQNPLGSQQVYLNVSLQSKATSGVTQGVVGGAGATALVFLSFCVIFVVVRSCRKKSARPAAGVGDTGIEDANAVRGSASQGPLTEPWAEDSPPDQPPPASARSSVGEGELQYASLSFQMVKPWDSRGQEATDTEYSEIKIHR
On the technique in general: ELISA stands for enzyme-linked immunosorbent assay.

A further assay relates to macrophages. The assay is described as follows: Phenotype of MUC1-ST treated macrophages (CD206, CD163, PD-L1; flow cytometry). The format is cell-based, human. The protocol:
Both the cell phenotype staining and neutralization studies described in the Examples were performed using the following antibodies (all anti-human): Siglec-9 (Biotechne; 191240), Siglec-9 FITC (Biotechne; 191240), Siglec-3 (Biotechne; 6C5/2), Siglec-7 (Biotechne; AF1138), Siglec-3 FITC (BD; P67.6), Siglec-7 PE (Biolegend; 6-434), Siglec-10 PE (Biolegend; 5G6), Siglec-1 (abcam; 7D2), HLA-DR FITC (Beckman Coulter; IM0463U), CD16 FITC (Biolegend; B73.1), CD14 FITC (BD 555397), CD69 PE (Beckman Coulter; IM1943), CD25 FITC (ABX228FITC), CD86 PE (Beckman Coulter; IM2729U), CD40 FITC (BD 555588), CD83 PE (Beckman Coulter; IM2218), CD163 PE (Biolegend; GHI/61), CXCR1 FITC (BD Pharmongen; 551126), CD45 PC5 (Beckman Coulter; IM2653U), CD206 PE (ebioscience; 19.2), PD-L1 PE (Biolegend; 29E.2A3), CD36 (Santa Cruz; H-300), TGFbetaRII (Bio-Techne; AF-241), IL-6Rα (Tocilizumab; Roche. A generous gift from Dr. Valerie Corrigall). Cells were suspended in PBS+0.5% BSA (2×10^5 cells/100 μL/sample) and incubated with Abs according to the manufacturer's instructions. At least 1×10^4 events were evaluated using either Epics XL, (Beckman Coulter) or FACSCalibur (BD Biosciences) flow cytometers. Analysis was performed using either WinMDI or Cellquest software.
(Flow cytometry measures light scatter and fluorescence of single cells or particles in a stream.)

A further assay deals with THP-1 cells. The assay is described as follows: Calcium flux in differentiated THP-1 cells. The format is cell-based, human. The note with it: THP-1 differentiated with PMA, 100 μg/mL MUC1-ST. The protocol:
In addition, in a murine tumor model Siglec-E (the mouse Siglec with the most similarity to human Siglec-9), was associated with a decrease in alternatively activated macrophages (Laubli et al. (2014) PROC. NATL. ACAD. SCI. USA). As a result, the triggering of a calcium flux when MUC1-ST engaged Siglec-9 was investigated. Briefly, monocytes pre-labeled with an intracellular calcium reporter (Fluo-4; Life Technologies) were treated with MUC1-ST, MUC1-T (100 μg/10^6 cells) or a T47D monolayer, for 4 hours at 4° C. The cells were brought up to 37° C. and calcium flux was measured at 530 nm using a plate reader at the indicated time points. Where not indicated, the time point was 60 seconds. When monocytes or macrophages were treated with MUC1-ST, a Siglec-9 dependent increase in calcium influx was observed (FIGS. 13E-F). A calcium flux was also observed when monocytes and T47D cells came into contact. This effect could also be inhibited by the anti-Siglec-9 antibody.
The intracellular effects of MUC1-ST binding to Siglec-9 were further explored in the monocytic cell line, THP-1. […] THP-1 cells were further treated with DMSO or the MEK/ERK inhibitor PD98059 at 1004, and the concentration of PAI-1, M-CSF and kynurenine in cell supernatants were measured as described above. […]

For the substance “NeuAcα2,3Galβ1-3GalNAc linked via a Ser/Thr of MUC1 [MUC1-ST]”, the “binding to recombinant Siglec fusion protein” value with Siglec-9 [1] is “greatest binding”. Also, the “phosphorylation of Siglec-9” value with Siglec-9 [2] was “inhibited”. In the assay with macrophages, the “expression of immune checkpoint ligand PD-L1” value was “increased expression”; the “levels of mannose receptor (CD206) and scavenger receptor CD163” value is given as “increased levels”. Besides, the calcium flux result in the assay on THP-1 cells is “induce calcium flux”.
